From patent US12178791B2, “Haloallylamine sulfone derivative inhibitors of lysyl oxidases and uses thereof” (Syntara Limited, priority 2018, dated 2024)
Entries after “also recorded” stand apart in the source; their conditions may differ. Structures can show the parent of a compound that is named as a salt.

What was measured:
[1] = biological target: LOXL2 (Homo sapiens (Human), UniProt Q9Y4K0); experiment: LOXL2 inhibition, Amplex Red oxidation assay; format: biochemical; details: 30 min preincubation at 37 °C, putrescine substrate
Method in brief: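 LOXL2 in 1.2 M urea, 50 mM sodium borate pH 8.2 was preincubated with compound (11-point curve) for 30 min at 37 °C; mofegiline/pargyline were added only for non-purified enzyme. Reaction mix held 2× KM putrescine (10 mM), 120 μM Amplex Red and 1.5 U/mL HRP. H2O2 fluorescence (ex 565/em 590 nm) was read over 30 min, and IC50 came from slopes.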

[2] = biological target: LOXL1 (Homo sapiens (Human), UniProt Q08397); experiment: Jump dilution experiment, sustained inhibition of LOXL1; format: biochemical; details: jump dilution after 40 min at 37 °C with 10× or 30× IC50; vs non-inhibited controls;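 note: 30× IC50 used only where needed so inhibitor exceeds enzyme concentration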
Method in brief: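 Enzyme preincubated with inhibitor at 100× the inhibition-study enzyme concentration, then diluted 50× in assay buffer and 2× in Amplex Red–HRP–putrescine mix. Fluorescence read; activity expressed as % signal recovery after a set time versus uninhibited controls.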

[3] = In vivo pharmacokinetics, plasma concentration after p.o. dosing; set-up: species or system Wistar rats; details: for concentration at 0.25 h / concentration at 0.5 h / concentration at 1 h / concentration at 2 h / concentration at 3 h / concentration at 5 h / concentration at 8 h / concentration at 4 h: male, Wistar, plasma, po, rat; for concentration at 0.5 h: 0.50 hours; for plasma concentrations relative to the IC50: rat plasma, after 8 hours
Procedure: Test compounds (10 mg/kg and 30 mg/kg in PBS, p.o. n=3) were administered to 7-9 weeks old male Wistar rats. Test compound blood samples were collected at time points from 0.25 h-8.00 h (Compound 1); 0.5 h-8.00 h (Compound 33) post administration, from tail vein.
Sample preparation: 20 μL of calibration samples (in single), QC samples (in duplicate) and rat plasma samples were mixed with 60 μL acetonitrile containing internal standard (IS; 200 ng/mL of tolbutamide and 50 ng/mL propanolol) in Eppendorf tubes. The mixture was vortexed for 1 min, then centrifuged for 10 min, 50 μL of supernatant was transferred to a 96 well-plate with 100 μL water. After shaking for 10 min, 10 μL was injected into the liquid chromatography mass spectrometry (LC-MS/MS) system for analysis.
HPLC: Agilent 1100; Mass Spectrometer: API 4000
Column: Phenomenex Gemini C18 5 μm 50×4.6 mm
Mobile phase: 0.1% formic acid in water, 0.1% formic acid in acetonitrile
HPLC: Shimadzu LC30AD; Mass Spectrometer: API 4000
For dilution samples: 10 μL sample was added to 90 μL blank rat plasma. The mixture was precipitated with 300 μL acetonitrile containing IS in Eppendorf tubes. The mixture was vortexed for 1 min, then centrifuged for 10 min, 50 μL supernatant was transferred to a 96 well-plate with 100 μL water. After shaking for 10 min, 10 μL was injected into the LC-MS/MS system for analysis. Determined, mean plasma concentrations for Compounds 1 and 33 are shown in Table 5 and Table 6 respectively.

[4] = test system: lysyl oxidase; experiment: Target engagement: lysyl oxidase activity, ear slice assay; format: in vivo, Wistar rats
Procedure: The ears, collected right after sacrifice of the rats (treated or untreated with a LOX inhibitor), were snap frozen in dry ice for −80° C. storage. For the assay, 5×5 mm samples were cut (still half-thawed), embedded in agarose gel and cut in cross sections […] thick (vibratome). The thin sections were collected in ice cold PBS containing protease inhibitors, and allowed to rest in the bath for 2-3 hours, to allow soluble contaminants to diffuse away prior to the assay. For a 96 well plate format: three thin slices were collected, gently blotted dry on Kimwipe, and transferred to each well containing 100 μl of assay buffer (1.2 M urea, 50 mM sodium borate buffer, pH 8.2), for a 30 minute pre-incubation at 37° C. in presence of 1 μM mofegiline and 500 μM pargyline. BAPN (500 μM) had been added to all the “low control” wells. A minimum of three replicas were performed for each condition.
After pre-incubation, 100 μl of Amplex Red-horseradish peroxidase (HRP) mix (120 μM Amplex Red, 1.5 U/mL HRP, 20 mM putrescine) were added to all wells, and the plate was read at 37° C. every 2.5 minutes for 13 times, (544 nm excitation and 590 nm emission, on a BMG Clariostar, in orbital, top reading mode). The slope of the kinetic curves, subtracted by the values obtained in the low controls (in presence of BAPN), was considered a measure of the specific lysyl oxidase activity in the sample.
Young male Wistar rats were given a single oral dose (10 or 30 mg/kg) of Compounds 1 or 33 (Table 5 and 6 respectively) and the enzymatic activity was measured in tissues with a high basal activity at this age, in the ear (FIGS. 2a and b; Compound 1 and 33 respectively) and aorta (FIG. 3c; Compound 33 only). The responses were normalised to the activity measured in animals treated with saline (control).

Sequence of LOXL1 (Q08397 96-574, species assumed): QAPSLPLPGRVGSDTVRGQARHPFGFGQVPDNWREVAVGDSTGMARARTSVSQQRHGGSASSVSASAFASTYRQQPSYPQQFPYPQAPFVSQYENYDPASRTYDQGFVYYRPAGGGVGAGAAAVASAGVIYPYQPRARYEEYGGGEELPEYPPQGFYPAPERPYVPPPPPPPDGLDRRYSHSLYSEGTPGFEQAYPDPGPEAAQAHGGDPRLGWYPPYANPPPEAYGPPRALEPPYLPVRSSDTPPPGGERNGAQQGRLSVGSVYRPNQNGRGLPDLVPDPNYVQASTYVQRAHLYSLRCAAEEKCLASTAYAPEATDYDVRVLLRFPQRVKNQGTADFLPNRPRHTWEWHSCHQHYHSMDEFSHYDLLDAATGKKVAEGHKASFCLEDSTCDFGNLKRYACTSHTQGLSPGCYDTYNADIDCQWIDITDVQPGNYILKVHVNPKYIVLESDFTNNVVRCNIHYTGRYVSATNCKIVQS
Sequence of LOXL2 (Q9Y4K0 26-774): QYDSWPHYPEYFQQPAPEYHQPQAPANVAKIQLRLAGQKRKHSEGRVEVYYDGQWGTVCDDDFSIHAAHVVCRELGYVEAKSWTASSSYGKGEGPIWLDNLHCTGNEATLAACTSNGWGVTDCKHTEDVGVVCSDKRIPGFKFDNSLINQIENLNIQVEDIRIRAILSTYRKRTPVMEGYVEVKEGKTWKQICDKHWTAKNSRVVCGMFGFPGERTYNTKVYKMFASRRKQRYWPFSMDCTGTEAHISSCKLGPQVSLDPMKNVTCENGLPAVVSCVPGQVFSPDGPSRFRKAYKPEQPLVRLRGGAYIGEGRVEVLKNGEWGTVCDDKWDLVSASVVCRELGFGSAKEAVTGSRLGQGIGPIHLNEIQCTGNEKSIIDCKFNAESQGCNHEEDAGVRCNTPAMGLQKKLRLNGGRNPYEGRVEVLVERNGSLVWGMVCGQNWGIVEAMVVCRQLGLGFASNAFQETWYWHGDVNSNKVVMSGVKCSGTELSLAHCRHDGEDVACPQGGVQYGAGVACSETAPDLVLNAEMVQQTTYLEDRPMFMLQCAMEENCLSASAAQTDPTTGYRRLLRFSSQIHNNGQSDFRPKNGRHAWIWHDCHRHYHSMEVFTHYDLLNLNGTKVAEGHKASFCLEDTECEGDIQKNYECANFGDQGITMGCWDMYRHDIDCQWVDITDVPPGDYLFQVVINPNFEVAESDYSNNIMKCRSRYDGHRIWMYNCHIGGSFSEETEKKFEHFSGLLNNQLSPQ

**Q.** Which results are given for `NC/C=C(\F)CS(=O)(=O)c1ccccc1` [Compound 1, (Z)-3-fluoro-4-(phenylsulfonyl)but-2-en-1-amine hydrochloride]?
**A.** IC50 [1]: < 10 µM; LOXL1 - Recovery of activity. (%) [2]: 2.4%; concentration at 0.25 h ([3]; 10 mg/kg p.o.): 379 ng/mL; concentration at 0.5 h ([3]; 10 mg/kg p.o.): 736 ng/mL; concentration at 1 h ([3]; 10 mg/kg p.o.): 450 ng/mL; concentration at 2 h ([3]; 10 mg/kg p.o.): 134 ng/mL; concentration at 3 h ([3]; 10 mg/kg p.o.): 66.4 ng/mL; concentration at 5 h ([3]; 10 mg/kg p.o.): 27.2 ng/mL; concentration at 8 h ([3]; 10 mg/kg p.o.): 6.4 ng/mL; concentration at 0.25 h ([3]; 30 mg/kg p.o.): 1060 ng/mL; concentration at 0.5 h ([3]; 30 mg/kg p.o.): 2090 ng/mL; concentration at 1 h ([3]; 30 mg/kg p.o.): 1200 ng/mL; concentration at 2 h ([3]; 30 mg/kg p.o.): 657 ng/mL; concentration at 3 h ([3]; 30 mg/kg p.o.): 238 ng/mL; concentration at 5 h ([3]; 30 mg/kg p.o.): 41.3 ng/mL; concentration at 8 h ([3]; 30 mg/kg p.o.): 13.5 ng/mL; plasma concentrations relative to the IC50 [3]: far below the IC50; LOX activity in rat ear ([4]; 24 hours after single oral dose at 10 and 30 mg/kg, vs saline control, hydrochloride): dose-dependent block; also recorded: dose dependent, sustained reduction

**Q.** For `NC/C=C(\F)CS(=O)(=O)c1cccc2cccnc12` [Compound 33, (Z)-3-fluoro-4-(quinolin-8-ylsulfonyl)but-2-en-1-amine dihydrochloride], which IC50 [1] is on record?
**A.** < 1 µM

**Q.** And the “LOXL1 - Recovery of activity. (%)” value [2]?
**A.** 4.5%

**Q.** And the concentration at 0.5 h ([3]; 10 mg/kg p.o.)?
**A.** 771 ng/mL

**Q.** What about the concentration at 1 h ([3]; 10 mg/kg p.o.) of the same molecule?
**A.** 548 ng/mL

**Q.** And the concentration at 2 h ([3]; 10 mg/kg p.o.)?
**A.** 246 ng/mL

**Q.** And the concentration at 4 h ([3]; 10 mg/kg p.o.)?
**A.** 56.4 ng/mL

**Q.** And the concentration at 8 h ([3]; 10 mg/kg p.o.)?
**A.** 8.4 ng/mL

**Q.** And the concentration at 0.5 h ([3]; 30 mg/kg p.o.)?
**A.** 3710 ng/mL

**Q.** What about the concentration at 1 h ([3]; 30 mg/kg p.o.) of the same molecule?
**A.** 3010 ng/mL

**Q.** And the concentration at 2 h ([3]; 30 mg/kg p.o.)?
**A.** 1470 ng/mL

**Q.** What about the concentration at 4 h ([3]; 30 mg/kg p.o.) of the same molecule?
**A.** 185 ng/mL

**Q.** What about the concentration at 8 h ([3]; 30 mg/kg p.o.) of the same molecule?
**A.** 13.7 ng/mL

**Q.** What about the “plasma concentrations relative to the IC50” value [3] of the same molecule?
**A.** far below the IC50

**Q.** And the “lysyl oxidase activity in rat tissue” value ([4]; single high (30 mg/kg) oral dose)?
**A.** completely abolish

**Q.** What about the “half-life of recovery of lysyl oxidase activity (ear)” value ([4]; single oral dose 30 mg/kg) of the same molecule?
**A.** 48 to 72 h
